This is an account of results in US20140107107A1, “PHARMACEUTICAL FORMULATION CONTAINING THIENOTRIAZOLODIAZEPINE COMPOUNDS” (Oncoethix SA, priority 2012, published 2014).

The structures appear in SMILES notation.

Data set [1] is described as follows: oral exposure in the rat (pharmacokinetics). In kind it is in vivo, Hsd:Sprague Dawley rats. The settings on record: 1 mg/kg intravenous. The method, then:
The oral bioavailability of three formulations of solid dispersions of compound (1-1) was determined in rats. The three dispersions chosen were the 25% dispersion of compound (1-1) in PVP, the 25% dispersion of compound (1-1) in HPMCAS-MG, and the 50% dispersion of compound (1-1) in HPMCAS-MG. The animals used in the study were Specific Pathogen Free (SPF) Hsd:Sprague Dawley rats obtained from the Central Animal Laboratory at the University of Turku, Finland. The rats were originally purchased from Harlan, The Netherlands. The rats were female and were ten weeks of age, and 12 rats were used in the study. The animals were housed in polycarbonate Makrolon II cages (three animals per cage), the animal room temperature was 21+/−3° C., the animal room relative humidity was 55+/−15%, and the animal room lighting was artificial and was cycled for 12 hour light and dark periods (with the dark period between 18:00 and 06:00 hours). Aspen chips (Tapvei Oy, Estonia) were used for bedding, and bedding was changed at least once per week. Food and water was provided prior to dosing the animals but was removed during the first two hours after dosing.
The oral dosing solutions containing the 25% dispersion of compound (1-1) in PVP, the 25% dispersion of compound (1-1) in HPMCAS-MG, and the 50% dispersion of compound (1-1) in HPMCAS-MG were prepared by adding a pre-calculated amount of sterile water for injection to containers holding the dispersion using appropriate quantities to obtain a concentration of 0.75 mg/mL of compound (1-1). The oral dosing solutions were subjected to vortex mixing for 20 seconds prior to each dose. The dosing solution for intravenous administration contained 0.25 mg/mL of compound (1-1) and was prepared by dissolving 5 mg of compound (1-1) in a mixture containing 4 mL of polyethylene glycol with an average molecular weight of 400 Da (PEG400), 4 mL of ethanol (96% purity), and 12 mL of sterile water for injection. The dosing solution containing the 25% dispersion of compound (1-1) in PVP was used within 30 minutes after the addition of water. The dosing solutions containing the 25% dispersion of compound (1-1) in HPMCAS-MG and the 50% dispersion of compound (1-1) in HPMCAS-MG were used within 60 minutes of after the addition of water. A dosing volume of 4 mL/kg was used to give dose levels of compound (1-1) of 1 mg/kg for intravenous administration and 3 mg/kg for oral administration.
Blood samples of approximately 50 μL were collected into Eppendorf tubes containing 5 μL of ethylenediaminetetraacetic acid (EDTA) solution at time points of 0.25, 0.5, 1, 2, 4, 8, 12, and 24 hours after dosing, with each sample collected within a window of 5 minutes from the prescribed time point. From each sample, 20 μL of plasma was obtained and stored at dry ice temperatures for analysis. Analysis of each sample for the concentration of compound (1-1) was performed using a validated liquid chromatography tandem mass spectrometry (LC-MS/MS) method with a lower limit of quantitation of 0.5 ng/mL.
Pharmacokinetic parameters were calculated with the Phoenix WinNonlin software package (version 6.2.1, Pharsight Corp., CA, USA) with standard noncompartmental methods. The elimination phase half-life (t1/2) was calculated by least-squares regression analysis of the terminal linear part of the log concentration-time curve. The area under the plasma concentration-time curve (AUC) was determined by use of the linear trapezoidal rule up to the last measurable concentration and thereafter by extrapolation of the terminal elimination phase to infinity. The mean residence time (MRT), representing the average amount of time a compound remains in a compartment or system, was calculated by extrapolating the drug concentration profile to infinity. The maximum plasma concentration (Cmax) and the time to Cmax (tmax) were derived directly from the plasma concentration data. […]

Data set [2] in a line: pharmacokinetics and oral bioavailability in dogs. In kind it is in vivo. To be noted: male, beagle, dog, plasma, 1 mg/kg IV. The method, then:
Blood samples were collected from the jugular vein of each animal at 0 (pre-dose), 5, 15, and 30 minutes and 1, 2, 4, 8, 12, and 24 hours following intravenous administration and at 0 (pre-dose), 15 and 30 minutes and 1, 2, 4, 8, 12, and 24 hours following oral gavage administration. The amount of compound (1-1) present in each sample was detected using a qualified LC-MS/MS method with a lower limit of quantification of 0.5 ng/mL. The area under the plasma concentration-time curve (AUC) was determined by use of the linear trapezoidal rule up to the last measurable concentration without extrapolation of the terminal elimination phase to infinity. The elimination half-life (t1/2) was calculated by least-squares regression analysis of the terminal linear part of the log concentration-ime curve. The maximum plasma concentration (Cmax) and the time to Cmax (tmax) were derived directly from the plasma concentration data. The oral bioavailability (F) was calculated by dividing the dose normalized AUC after oral administration by the dose normalized AUC after intravenous administration and reported as percentages (%).

Where [3] appears, read: female, Hsd:Sprague Dawley, plasma.

Compound `Cc1sc2c(c1C)C(c1ccc(Cl)cc1)=N[C@@H](CC(=O)Nc1ccc(O)cc1)c1nnc(C)n1-2` [Compound (1-1), 2-[(6S)-4-(4-chlorophenyl)-2,3,9-trimethyl-6H-thienol[3,2f]-[1,2,4]triazolo[4,3-a][1,4]diazepin-6-yl]-N-(4-hydroxyphenyl)acetamide dihydrate] displayed a CI/F in data set [1] of 13.4 mL/min/kg. In data set [1] (setting [3]), the highest level (Cmax) was 730 ng/mL, the MRT was 7.4 h, the Tmax worked out at 15 min and the half-life is 510 min. In data set [1] (female, Hsd:Sprague Dawley, plasma, extrapolated to infinity), the exposure (AUC) is 1240 ng·h/mL. The compound also showed a half-life in data set [2] of 90 min. In addition, in data set [2] (average of three dogs), the peak level (Cmax) was 769 ng/mL and the Tmax turned out to be 4.98 min. The AUC in data set [2] (to last measurable concentration) is 889 ng·h/mL.

Usually Cmax stands for the peak of the concentration-time curve. The MRT is the average time that molecules of a dose stay in the body. A word on the Tmax: it is the time at which the peak concentration occurs. As usually defined, the half-life is the time needed for the level to fall by half in the phase considered. The low end stands for fast loss, the high end for slow loss. In general, AUC refers to concentration integrated over time.
